Molecules are shown by their SMILES.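 48-hour exposure; five concentrations; linearly interpolated endpoints. GI50 is the concentration that inhibits growth by half. TGI: concentration producing complete growth inhibition.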

The first assay has as its system OVCAR-4 ovarian. The experiment in a line: NCI tumour cell line growth inhibition, 48 h.
Regarding `O=S1OC2(c3ccccc3-c3ccccc32)c2ccccc21` (configuration not stated), the TGI is more than 100 µM.
As for `CCOC(=N)CC(=O)Nc1cccc(C)c1C`, the TGI was more than 100 µM.

The subject of the next assay is HOP-62 NSCLC. Nature of the assay: NCI tumour cell line growth inhibition, 48 h.
The compound `COc1cc2ccc3c4cc(OC)c(OC(C)C)cc4cnc3c2cc1OC` displayed a TGI of more than 100 µM.
The compound `CN1NC(=Nc2ccccc2)Sc2c1cnn(-c1ccccc1)c2=O` came in with a TGI of more than 100 µM.
Consider `C1C[OH+]CCNCC[OH+]CC[OH+]CCN1.[Cl-].[Pt+4]`, for which the GI50 was more than 100 µM and the TGI is more than 100 µM.
As to `CC(=O)c1sc(-c2nc(C)c(C(=O)/C=C\c3ccc(/C=C\C(=O)c4sc(-c5nc(C)c(C(C)=O)s5)nc4C)cc3)s2)nc1C`, the TGI is more than 100 µM.
The same measure, in the same setting: next, `COC(=O)/C(C)=C/[N+](=O)[O-]`: 57.9 µM; `Cc1ccc(C2(O)CC(c3ccc([N+](=O)[O-])o3)=NN2C(=O)COc2ccc(Cl)cc2)cc1` (configuration not stated): 18.2 µM; `CC1=NN(C(=O)CC(=O)N(C(=O)c2ccccc2Cl)c2ccc(C)cc2)C(=O)C1N=Nc1ccc([N+](=O)[O-])cc1` (configuration not stated): more than 100 µM.
Compound `COc1cccc(-n2c3nc(=O)n(C)c(=O)c-3nc3ccccc32)c1` displayed a TGI of more than 100 µM.
On to `CC(C)(C=O)CC(C#N)/C(=N\NC(N)=O)C(=O)Nc1ccccc1C(N)=O` (configuration not stated), for which the TGI was more than 100 µM.
In turn, `Cc1cc(C)c(C2[C@H]3C(=O)N(c4ccc(Cc5ccc(N6C(=O)[C@@H]7ON(c8ccccc8)C(c8c(C)cc(C)cc8C)[C@@H]7C6=O)cc5)cc4)C(=O)[C@H]3ON2c2ccccc2)c(C)c1` (some centres not stated) returned a TGI of more than 100 µM.
On the same count and under the same terms, under `COC(=O)OCC1OC(N2C(=O)NC(=O)C(Br)C2N=[N+]=[N-])CC1OC(=O)OC` (configuration not stated) stands more than 100 µM; under `CC12CCCCC1(C)C2Sc1ccccc1` (configuration not stated), more than 100 µM.
In turn, `CCCCOC(=O)NC(=O)c1cn(CCCOC(=O)NCCCCCCNC(=O)OCCCn2cc(C(=O)NC(=O)OCCCC)c(=O)[nH]c2=O)c(=O)[nH]c1=O` returned a TGI of more than 100 µM.
In the case of `C[C@@]12CCCc3coc(c31)C(=O)c1cc3c(cc12)C(=O)C=CC3=O`, the GI50 is more than 100 µM and the TGI is more than 100 µM.
Compound `COc1cc(C)c2c(c1C)OC(=O)c1c(C)c(Cl)c(O)c(C=O)c1O2` gave a TGI of 47 µM.
Consider `C=CCNC(=O)N(CCC)CCCCC(NC(C)=O)C(=O)NCc1ccccc1` (configuration not stated), for which the TGI is more than 100 µM.
Compound `COC(=O)/C(C=O)=C/Sc1ccccc1` had a TGI of more than 100 µM.
With `Nc1ccn(C2(CO)C=C(CO)C(O)C2O)c(=O)n1` (configuration not stated), the TGI is more than 25.8 µM.
`C=C1C[C@]23CCC4C(C)(C)C(=O)CC[C@]4(C)C2C[C@H]1C(O)C3=O` (some centres not stated): the TGI was more than 75 µM.
On the same count and under the same terms, next, `CC1(C)O/C(=C\c2ccccc2)C(=O)/C(=C/c2ccccc2)O1`: more than 100 µM; `O=C1CC2C(=O)N(Cc3ccccc3)C1C=C2S(=O)(=O)c1ccccc1` (configuration not stated): more than 100 µM.
`N.N.N.N.[Cl-].[Co+3].[N-]=[N+]=[N-].[N-]=[N+]=[N-]`: the GI50 is more than 100 µM and the TGI is more than 100 µM.
Consider `O=c1[nH]c2cc(Cl)ccc2nc1/C(=N\O)C(O)c1ccc(Cl)cc1Cl` (configuration not stated), for which the TGI is more than 100 µM.
On the same count and under the same terms, next, `CC(C)CCCC(C)[C@H]1CCC2[C@H]3C(CC[C@@]21C)[C@@]1(C)CCC=C[C@]12C[C@@H]2[C@@H]3O` (some centres not stated): more than 100 µM.
In the case of `O=C(Nc1cc(Cl)ccc1Cl)C(=O)C(c1cnc2ccccc2n1)[N+](=O)[O-]` (configuration not stated), the TGI is more than 100 µM.
On to `COC(=O)CCC(=O)CC1CC(=O)C2CCCN12` (configuration not stated), for which the TGI was more than 100 µM.
Still for that read-out and setting: next, `Cc1cc(NS(=O)(=O)c2ccc(Nc3c4ccccc4nc4c(C(=O)NCCN(C)C)cccc34)cc2)no1`: 6.57 µM; `Nc1nc(CCl)nc(Nc2ccccc2)n1`: 38.8 µM.
`O=S1OC2(c3ccccc3-c3ccccc32)c2ccccc21` (configuration not stated) gave a TGI of more than 100 µM.
Same read-out and setting: under `CCOC(=N)CC(=O)Nc1cccc(C)c1C` stands more than 100 µM.

Another assay has as its system MALME-3M melanoma. Nature of the assay: NCI tumour cell line growth inhibition, 48 h.
As for `COc1cc2ccc3c4cc(OC)c(OC(C)C)cc4cnc3c2cc1OC`, the TGI was more than 100 µM.
The same measure, in the same setting: next, `CN1NC(=Nc2ccccc2)Sc2c1cnn(-c1ccccc1)c2=O`: more than 100 µM.
In the case of `C1C[OH+]CCNCC[OH+]CC[OH+]CCN1.[Cl-].[Pt+4]`, the GI50 is more than 100 µM and the TGI was more than 100 µM.
`CC(=O)c1sc(-c2nc(C)c(C(=O)/C=C\c3ccc(/C=C\C(=O)c4sc(-c5nc(C)c(C(C)=O)s5)nc4C)cc3)s2)nc1C` showed a TGI of more than 100 µM.
In the case of `COC(=O)/C(C)=C/[N+](=O)[O-]`, the TGI is 31.4 µM.
Same read-out and setting: next, `Cc1ccc(C2(O)CC(c3ccc([N+](=O)[O-])o3)=NN2C(=O)COc2ccc(Cl)cc2)cc1` (configuration not stated): 27.1 µM; `CC1=NN(C(=O)CC(=O)N(C(=O)c2ccccc2Cl)c2ccc(C)cc2)C(=O)C1N=Nc1ccc([N+](=O)[O-])cc1` (configuration not stated): more than 100 µM.
The same measure, in the same setting: under `COc1cccc(-n2c3nc(=O)n(C)c(=O)c-3nc3ccccc32)c1` stands 29.8 µM; under `CC(C)(C=O)CC(C#N)/C(=N\NC(N)=O)C(=O)Nc1ccccc1C(N)=O` (configuration not stated), more than 100 µM.
Consider `Cc1cc(C)c(C2[C@H]3C(=O)N(c4ccc(Cc5ccc(N6C(=O)[C@@H]7ON(c8ccccc8)C(c8c(C)cc(C)cc8C)[C@@H]7C6=O)cc5)cc4)C(=O)[C@H]3ON2c2ccccc2)c(C)c1` (some centres not stated), for which the TGI is more than 100 µM.
On the same count and under the same terms, under `COC(=O)OCC1OC(N2C(=O)NC(=O)C(Br)C2N=[N+]=[N-])CC1OC(=O)OC` (configuration not stated) stands more than 100 µM; under `CC12CCCCC1(C)C2Sc1ccccc1` (configuration not stated), more than 100 µM.
Compound `CCCCOC(=O)NC(=O)c1cn(CCCOC(=O)NCCCCCCNC(=O)OCCCn2cc(C(=O)NC(=O)OCCCC)c(=O)[nH]c2=O)c(=O)[nH]c1=O` gave a TGI of more than 100 µM.
As to `C[C@@]12CCCc3coc(c31)C(=O)c1cc3c(cc12)C(=O)C=CC3=O`, the TGI is more than 1 µM.
On the same count and under the same terms, under `COc1cc(C)c2c(c1C)OC(=O)c1c(C)c(Cl)c(O)c(C=O)c1O2` stands 42.3 µM; under `C=CCNC(=O)N(CCC)CCCCC(NC(C)=O)C(=O)NCc1ccccc1` (configuration not stated), more than 100 µM; under `Nc1ccn(C2(CO)C=C(CO)C(O)C2O)c(=O)n1` (configuration not stated), more than 25.8 µM.
The same measure, in the same setting: next, `C=C1C[C@]23CCC4C(C)(C)C(=O)CC[C@]4(C)C2C[C@H]1C(O)C3=O` (some centres not stated): more than 75 µM; `CC1(C)O/C(=C\c2ccccc2)C(=O)/C(=C/c2ccccc2)O1`: more than 100 µM.
Regarding `O=C1CC2C(=O)N(Cc3ccccc3)C1C=C2S(=O)(=O)c1ccccc1` (configuration not stated), the TGI is more than 100 µM.
Regarding `N.N.N.N.[Cl-].[Co+3].[N-]=[N+]=[N-].[N-]=[N+]=[N-]`, the GI50 was 57.9 µM and the TGI is more than 100 µM.
For `O=c1[nH]c2cc(Cl)ccc2nc1/C(=N\O)C(O)c1ccc(Cl)cc1Cl` (configuration not stated), the TGI is more than 100 µM.
Regarding `CC(C)CCCC(C)[C@H]1CCC2[C@H]3C(CC[C@@]21C)[C@@]1(C)CCC=C[C@]12C[C@@H]2[C@@H]3O` (some centres not stated), the TGI was more than 100 µM.
Same read-out and setting: next, `O=C(Nc1cc(Cl)ccc1Cl)C(=O)C(c1cnc2ccccc2n1)[N+](=O)[O-]` (configuration not stated): more than 100 µM; `COC(=O)CCC(=O)CC1CC(=O)C2CCCN12` (configuration not stated): more than 100 µM.

The record behind these values is PubChem BioAssay (NCI).
